Assay results reported in patent publication US5874086A, “Synthesis and use for the treatment of osteoporosis” (Syntex (U.S.A,), Inc., priority 1994, dated 1999).
Where no end group is shown, it is not given here. [ ]: non-standard residue; d: D form. The star is where a group is joined. hSer(lactone) = O=C1OCC[C@@H]1N*

Columns and labels:
ovariectomized rats = assay: Effect on bone mass (bone calcium) in ovariectomized rats; assay type: in vivo, Sprague-Dawley female rats
Method: Bone Dis. 5:177 181 (1984).
Adult Sprague-Dawley female rats were acclimatized, weight grouped (n=9, 10 or 12), and subjected to bilateral ovariectomy (OVX) or sham surgery. Dosing was initiated 17 days after surgery and continued for 20 days. Test compound was administered subcutaneously once a day in 2% rat serum/saline vehicle.
After 20 days of dosing, the rats were sacrificed and the right femurs excised. The femurs were cut in half and the distal half femurs (DHF) were further separated into trabecular bone (TB) and cortical bone (CB) by drilling out the trabeculae. Calcium was extracted and measured by Calcette calcium analyzer and expressed as mean bone Ca in mg/DHF/100 g body weight.
The two sample t-test was used to compare OVX and sham groups. One-way ANOVA was used to compare OVX groups, followed by Fisher's LSD multiple comparison to compare each treatment group to vehicle.

[1] = system: normal and osteoporotic adult female rats; details: daily subcutaneous doses; cited from earlier work
[2] = system: ovariectomized adult female rats; details: daily subcutaneous injections; cited from earlier work
healthy adult male rats = details: daily subcutaneous injections for 12 days; cited from earlier work
[3] = 80 μg/kg/day subcutaneously once a day, 20 days of dosing

AVSEHQLLHDKGKSIQDLRRRELLEKLLEKLHTX [Compound 49]
Total Bone Calcium (% increase over OVX) (ovariectomized rats; 40 ug/kg/day, 10 d of dosing): 93%

AVSEHQLLHDKGKSIQDLRRRELLEKLLEKLHTA-OH [Compound 2]
Total Bone Calcium (% increase over OVX) (ovariectomized rats; [3]): 66-114% | Trabecular Bone Calcium (% increase over OVX) (ovariectomized rats; [3]): 87-102%

AVSEHQLLHDKGKSIQDLRRRELLEKLLEKLP-NH2 (AVSEHQLLHDKGKSIQDLRRRELLEKLLEKLP-NH2) [Compound 42]
Total Bone Calcium (% increase over OVX) (ovariectomized rats; 40 ug/kg/day, 5 d of dosing): 60%

AVSEHQLLHDKGKSIQDLRRRELLEKLLEKLHTX (AVSEHQLLHDKGKSIQDLRRRELLEKLLEKLHT[hSer(lactone)]) [Compound 4, X = hSerlac; homoserine lactone peptide]
Total Bone Calcium (% increase over OVX) (ovariectomized rats; 40 ug/kg/day, 5 d of dosing): 55% | Total Bone Calcium (% increase over OVX) (ovariectomized rats; 40 ug/kg/day, 10 d of dosing): 79% | Total Bone Calcium (% increase over OVX) (ovariectomized rats; 40 ug/kg/day, 20 d of dosing): 79-105% | Total Bone Calcium (% increase over OVX) (ovariectomized rats; [3]): 88-114%

hPTH(1-34): N-terminal (1-34) fragment of human parathyroid hormone (SVSEIQLMHNLGKHLNSMERVEWLRKKLQDVHNF; Parathyroid hormone; UniProt P01270 32-65, looked up, fragment)
Whole body calcium and ash weight of individual bones [1]: increased | Loss of trabecular bone after ovariectomy [2]: completely reversed the loss of trabecular bone | Trabecular and cortical bone calcium and dry weight (healthy adult male rats): increased

B1: bPTH(1-84): bovine parathyroid hormone, single polypeptide chain of 84 amino acid residues (protein, UniProt P01268 32-115, looked up)
Parathyroid hormone: AVSEIQFMHNLGKHLSSMERVEWLRKKLQDVHNFVALGASIAYRDGSSQRPRKKEDNVLVESHQKSLGEADKADVDVLIKAKPQ
modifications: Parathyroid hormone
notes: bovine parathyroid hormone, single polypeptide chain of 84 amino acid residues
Whole body calcium and ash weight of individual bones [1]: increased
